The target of assay [1] is CAMK1 (Homo sapiens, UniProt Q14012). Put plainly: KINOMEscan. The conditions noted are these: read-out: Percent Control.
Method: (§1) The kinase engagement assay (KINOMEscan®) was performed by DiscoverX assessing binding abilities toward a set of kinases.
The target of assay [2] is KIT(V559D) (Homo sapiens, UniProt P10721, V559D). As to the kind of experiment: KINOMEscan. The conditions noted are these: read-out: Percent Control.
Method: as §1
Assay [3] deals with PIP5K1C (Homo sapiens, UniProt O60331). As to the kind of experiment: KINOMEscan. The conditions noted are these: read-out: Percent Control.
Method: as §1
For assay [4], the target named is CSNK1A1L (Homo sapiens, UniProt Q8N752). Put plainly: KINOMEscan. The conditions noted are these: read-out: Percent Control.
Sequence of CSNK1A1L (Q8N752 whole entry): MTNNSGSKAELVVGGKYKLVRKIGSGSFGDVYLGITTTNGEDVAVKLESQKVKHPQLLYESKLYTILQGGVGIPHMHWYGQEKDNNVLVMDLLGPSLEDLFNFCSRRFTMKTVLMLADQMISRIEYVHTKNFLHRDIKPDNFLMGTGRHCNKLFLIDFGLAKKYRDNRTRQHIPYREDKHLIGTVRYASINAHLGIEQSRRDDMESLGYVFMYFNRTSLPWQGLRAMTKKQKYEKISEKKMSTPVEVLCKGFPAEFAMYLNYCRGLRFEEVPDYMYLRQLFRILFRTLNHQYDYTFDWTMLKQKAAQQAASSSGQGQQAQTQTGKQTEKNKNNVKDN
Method: as §1
For assay [5], the target named is EGFR (Homo sapiens, UniProt P00533). Put plainly: KINOMEscan. The settings on record: read-out: Percent Control.
Method: as §1
In assay [6] the target is MARK1 (Homo sapiens, UniProt Q9P0L2). As to the kind of experiment: KINOMEscan. The conditions noted are these: read-out: Percent Control.
Sequence of MARK1 (Q9P0L2 whole entry): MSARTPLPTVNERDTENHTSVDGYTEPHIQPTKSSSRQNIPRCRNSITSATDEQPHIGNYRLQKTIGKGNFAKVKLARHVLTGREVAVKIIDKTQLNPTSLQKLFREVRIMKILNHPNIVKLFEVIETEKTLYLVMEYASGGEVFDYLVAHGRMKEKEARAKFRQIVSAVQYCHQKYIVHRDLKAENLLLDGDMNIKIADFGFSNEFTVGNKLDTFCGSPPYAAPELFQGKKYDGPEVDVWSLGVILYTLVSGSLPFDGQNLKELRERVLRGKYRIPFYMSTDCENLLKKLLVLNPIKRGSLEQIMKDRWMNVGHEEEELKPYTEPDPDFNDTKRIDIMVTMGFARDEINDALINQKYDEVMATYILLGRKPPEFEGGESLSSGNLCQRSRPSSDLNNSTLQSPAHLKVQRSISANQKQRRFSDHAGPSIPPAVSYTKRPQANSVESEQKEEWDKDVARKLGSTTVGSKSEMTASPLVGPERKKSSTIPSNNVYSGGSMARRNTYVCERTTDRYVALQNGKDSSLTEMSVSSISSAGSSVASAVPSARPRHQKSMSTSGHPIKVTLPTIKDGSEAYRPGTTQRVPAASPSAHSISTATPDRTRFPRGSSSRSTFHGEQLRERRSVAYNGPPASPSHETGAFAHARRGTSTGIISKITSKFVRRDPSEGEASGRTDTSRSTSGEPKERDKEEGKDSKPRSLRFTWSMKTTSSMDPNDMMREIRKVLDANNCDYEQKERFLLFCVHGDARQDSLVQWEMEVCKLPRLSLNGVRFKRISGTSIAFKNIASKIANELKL
Method: as §1
For assay [7], the target named is FLT3(N841I) (Homo sapiens, UniProt P36888, N841I). As to the kind of experiment: KINOMEscan. The settings on record: read-out: Percent Control.
Method: as §1
Assay [8] addresses LRRK2(G2019S) (Homo sapiens, UniProt Q5S007, G2019S). As to the kind of experiment: KINOMEscan. The conditions noted are these: read-out: Percent Control.
Method: as §1
The target in assay [9] is ULK1 (Homo sapiens, UniProt O75385). Put plainly: KINOMEscan. The settings on record: read-out: Percent Control.
Sequence of ULK1 (O75385 whole entry): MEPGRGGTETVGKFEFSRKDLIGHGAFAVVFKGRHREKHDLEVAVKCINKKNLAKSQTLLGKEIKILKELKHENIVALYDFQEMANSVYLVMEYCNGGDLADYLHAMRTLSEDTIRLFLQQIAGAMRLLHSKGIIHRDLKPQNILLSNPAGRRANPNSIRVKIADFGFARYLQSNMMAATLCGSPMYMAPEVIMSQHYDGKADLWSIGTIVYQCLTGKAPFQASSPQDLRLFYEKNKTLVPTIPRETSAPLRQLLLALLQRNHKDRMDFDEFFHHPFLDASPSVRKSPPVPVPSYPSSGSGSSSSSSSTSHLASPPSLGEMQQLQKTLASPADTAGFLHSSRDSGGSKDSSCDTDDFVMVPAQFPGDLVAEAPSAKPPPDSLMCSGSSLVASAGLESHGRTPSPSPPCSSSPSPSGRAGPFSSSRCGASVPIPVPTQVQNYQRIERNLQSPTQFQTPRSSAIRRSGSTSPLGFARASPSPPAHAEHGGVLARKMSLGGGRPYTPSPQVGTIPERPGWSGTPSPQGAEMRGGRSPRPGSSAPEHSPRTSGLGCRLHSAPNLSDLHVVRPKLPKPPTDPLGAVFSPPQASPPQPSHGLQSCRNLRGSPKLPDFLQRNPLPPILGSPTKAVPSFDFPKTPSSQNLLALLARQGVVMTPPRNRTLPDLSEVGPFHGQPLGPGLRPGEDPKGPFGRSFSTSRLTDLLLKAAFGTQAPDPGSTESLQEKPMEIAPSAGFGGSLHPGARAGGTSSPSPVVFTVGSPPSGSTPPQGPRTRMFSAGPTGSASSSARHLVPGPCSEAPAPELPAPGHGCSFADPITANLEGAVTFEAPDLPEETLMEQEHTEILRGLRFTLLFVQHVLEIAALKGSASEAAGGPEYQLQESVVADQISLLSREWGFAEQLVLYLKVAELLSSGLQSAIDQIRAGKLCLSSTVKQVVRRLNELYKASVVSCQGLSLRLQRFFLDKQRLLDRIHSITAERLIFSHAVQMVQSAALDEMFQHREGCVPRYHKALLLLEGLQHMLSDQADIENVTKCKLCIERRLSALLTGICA
Method: as §1
In assay [10] the target is RSK2(Kin.Dom.2-C-terminal) (Homo sapiens, UniProt P51812). Put plainly: KINOMEscan. The conditions noted are these: read-out: Percent Control.
Sequence of RSK2(Kin.Dom.2-C-terminal) (P51812 422-679 limits assumed): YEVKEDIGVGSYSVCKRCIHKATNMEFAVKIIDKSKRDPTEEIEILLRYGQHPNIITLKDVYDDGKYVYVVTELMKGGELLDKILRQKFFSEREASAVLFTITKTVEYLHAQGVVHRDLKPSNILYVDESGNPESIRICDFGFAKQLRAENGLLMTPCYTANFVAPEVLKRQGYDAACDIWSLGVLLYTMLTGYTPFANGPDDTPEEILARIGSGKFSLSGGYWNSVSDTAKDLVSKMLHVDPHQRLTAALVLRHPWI
Method: as §1
Assay [11] concerns the target ABL1(H396P)-nonphosphorylated (Homo sapiens, UniProt P00519, H396P). Put plainly: KINOMEscan. The settings on record: read-out: Percent Control.
Method: as §1
The target of assay [12] is CAMKK2 (Homo sapiens, UniProt Q96RR4). As to the kind of experiment: KINOMEscan. The settings on record: read-out: Percent Control.
Sequence of CAMKK2 (Q96RR4 whole entry): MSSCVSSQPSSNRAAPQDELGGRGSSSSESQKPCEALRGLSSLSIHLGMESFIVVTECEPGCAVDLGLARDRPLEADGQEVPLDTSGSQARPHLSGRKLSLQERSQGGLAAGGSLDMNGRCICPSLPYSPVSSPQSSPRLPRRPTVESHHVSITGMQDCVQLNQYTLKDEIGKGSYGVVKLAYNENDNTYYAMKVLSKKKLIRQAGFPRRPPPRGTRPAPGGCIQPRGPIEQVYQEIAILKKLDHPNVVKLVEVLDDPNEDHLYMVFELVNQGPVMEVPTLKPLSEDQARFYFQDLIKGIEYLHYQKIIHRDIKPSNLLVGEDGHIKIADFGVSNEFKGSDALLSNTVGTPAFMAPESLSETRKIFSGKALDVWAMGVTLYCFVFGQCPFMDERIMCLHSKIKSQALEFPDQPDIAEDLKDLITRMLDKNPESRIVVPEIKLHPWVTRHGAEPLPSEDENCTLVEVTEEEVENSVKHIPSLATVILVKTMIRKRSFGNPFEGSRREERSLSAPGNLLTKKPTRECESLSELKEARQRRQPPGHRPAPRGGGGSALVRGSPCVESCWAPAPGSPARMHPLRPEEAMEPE
Method: as §1
The target in assay [13] is T1, PAK1 (Homo sapiens, UniProt Q13153). As to the kind of experiment: Global multiplexed mass spectrometry proteomics in MOLT4 cells. The settings on record: 1 μM, 5 hours. Details: endogenous in cells; host or cells: MOLT4. The assay is classed as cell-based. As for the experimental part:
MOLT4 cells were treated with DMSO in biological triplicate and 1 μM BJG-05-039 for 5 hours and harvested by centrifugation. Cell lysis was performed by the addition of Urea buffer (8 M Urea, 50 mM NaCl, 50 mM 4-(2-hydroxyethyl)-1-piperazineethanesulfonic acid (EPPS) pH 8.5, Protease and Phosphatase inhibitors) followed by manual homogenization by 20 passes through a 21-gauge (1.25 in. long) needle. Lysate was clarified by centrifugation at 4° C. and protein quantified using bradford (Bio-Rad) assay. 100 μg of protein for each sample was reduced, alkylated and precipitated using methanol/chloroform as described (Donovan, et al. (2018) Elife 7: e38430). The resulting precipitated protein was resuspended in 4 M Urea, 50 mM HEPES pH 7.4, buffer for solubilization, followed by dilution to 1 M urea with the addition of 200 mM EPPS, pH 8. Proteins were digested for 12 hours at room temperature with LysC (1:50 ratio), followed by dilution to 0.5 M urea and a second digestion step was performed by addition of trypsin (1:50 ratio) for 6 hours at 37° C. […]
Quantification was performed using a MS3-based TMT method as described (Donovan et al. (2020) Cell 183(6):1714-1731). […]
Proteome Discoverer 2.4 (Thermo Fisher Scientific) was used for .RAW file processing and controlling peptide and protein level false discovery rates, assembling proteins from peptides, and protein quantification from peptides. […]

Assay [14] deals with T1, PAK1. As to the kind of experiment: KINOMEscan. The settings on record: read-out: Percent Control.
Method: as §1
Assay [15] concerns the target GRK7 (Homo sapiens, UniProt Q8WTQ7). Put plainly: KINOMEscan. The settings on record: read-out: Percent Control.
Method: as §1
For assay [16], the target named is IRAK1 (Homo sapiens, UniProt P51617). Put plainly: KINOMEscan. The conditions noted are these: read-out: Percent Control.
Method: as §1
The target of assay [17] is MKNK1 (Homo sapiens, UniProt Q9BUB5). As to the kind of experiment: KINOMEscan. The conditions noted are these: read-out: Percent Control.
Sequence of MKNK1 (Q9BUB5 whole entry): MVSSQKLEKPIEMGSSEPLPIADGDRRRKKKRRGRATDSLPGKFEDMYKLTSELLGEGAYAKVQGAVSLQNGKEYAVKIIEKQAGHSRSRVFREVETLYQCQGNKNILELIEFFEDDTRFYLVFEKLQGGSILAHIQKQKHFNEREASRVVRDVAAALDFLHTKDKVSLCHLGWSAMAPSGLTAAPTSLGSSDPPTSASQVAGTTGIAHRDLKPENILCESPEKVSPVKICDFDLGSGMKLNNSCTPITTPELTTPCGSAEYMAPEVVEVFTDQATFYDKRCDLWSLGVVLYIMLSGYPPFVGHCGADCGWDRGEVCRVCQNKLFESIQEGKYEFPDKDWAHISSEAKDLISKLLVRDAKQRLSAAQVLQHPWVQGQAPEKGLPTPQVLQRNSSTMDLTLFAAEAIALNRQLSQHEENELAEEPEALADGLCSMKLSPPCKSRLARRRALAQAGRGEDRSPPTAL
Method: as §1

Data on one molecule can be found in US20250312462A1, “PAK1 DEGRADERS AND METHODS OF USE THEREOF” (INSTITUTE FOR CANCER RESEARCH D/B/A THE RESEARCH INSTITUTE …, priority 2022, published 2025).

T1 sequence (Q13153 whole entry): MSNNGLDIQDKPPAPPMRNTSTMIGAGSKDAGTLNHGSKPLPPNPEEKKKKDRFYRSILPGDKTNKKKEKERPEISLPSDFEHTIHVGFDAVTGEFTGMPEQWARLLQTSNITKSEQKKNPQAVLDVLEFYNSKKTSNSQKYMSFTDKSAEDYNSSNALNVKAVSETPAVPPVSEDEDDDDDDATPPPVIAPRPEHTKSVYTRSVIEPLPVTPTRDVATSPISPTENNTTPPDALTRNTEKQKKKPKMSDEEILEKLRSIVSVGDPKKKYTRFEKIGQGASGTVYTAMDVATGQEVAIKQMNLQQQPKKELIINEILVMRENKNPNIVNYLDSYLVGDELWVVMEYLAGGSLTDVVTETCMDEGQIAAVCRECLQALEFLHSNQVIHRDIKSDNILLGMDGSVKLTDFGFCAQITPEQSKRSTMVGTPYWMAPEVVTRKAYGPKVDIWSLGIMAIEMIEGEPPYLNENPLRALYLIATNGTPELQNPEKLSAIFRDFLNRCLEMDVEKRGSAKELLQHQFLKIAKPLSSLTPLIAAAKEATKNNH
Sequence of CAMK1 (Q14012 whole entry): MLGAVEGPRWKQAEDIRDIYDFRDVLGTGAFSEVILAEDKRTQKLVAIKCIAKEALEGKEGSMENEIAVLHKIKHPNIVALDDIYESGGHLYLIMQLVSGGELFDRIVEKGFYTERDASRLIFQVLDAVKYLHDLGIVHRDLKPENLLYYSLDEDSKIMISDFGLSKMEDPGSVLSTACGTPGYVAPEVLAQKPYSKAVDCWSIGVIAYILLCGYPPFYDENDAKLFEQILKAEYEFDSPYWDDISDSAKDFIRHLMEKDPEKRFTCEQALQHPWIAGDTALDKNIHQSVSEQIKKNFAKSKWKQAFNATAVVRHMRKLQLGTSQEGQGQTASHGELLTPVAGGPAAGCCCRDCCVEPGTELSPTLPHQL
Sequence of GRK7 (Q8WTQ7 whole entry): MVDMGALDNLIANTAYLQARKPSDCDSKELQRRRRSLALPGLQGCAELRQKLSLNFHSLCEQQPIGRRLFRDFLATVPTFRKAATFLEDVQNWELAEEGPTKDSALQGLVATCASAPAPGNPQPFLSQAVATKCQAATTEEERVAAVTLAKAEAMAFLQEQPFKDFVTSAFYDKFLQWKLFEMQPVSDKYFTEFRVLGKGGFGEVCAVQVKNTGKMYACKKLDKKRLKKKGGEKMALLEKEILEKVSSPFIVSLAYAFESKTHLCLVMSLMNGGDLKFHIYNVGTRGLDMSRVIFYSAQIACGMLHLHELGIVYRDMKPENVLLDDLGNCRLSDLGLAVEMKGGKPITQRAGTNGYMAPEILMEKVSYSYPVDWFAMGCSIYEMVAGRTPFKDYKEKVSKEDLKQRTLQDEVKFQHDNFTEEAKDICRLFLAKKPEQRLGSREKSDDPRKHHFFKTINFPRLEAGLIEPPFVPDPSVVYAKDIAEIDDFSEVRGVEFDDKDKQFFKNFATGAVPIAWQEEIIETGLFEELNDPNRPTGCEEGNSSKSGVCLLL

As to `O=C1CCC(N2C(=O)c3cccc(NCCCCCCCCNC(=O)N4CC[C@H](NC5=Nc6cc(F)ccc6N(CC(F)F)c6ccc(Cl)cc65)C4)c3C2=O)C(=O)N1` (stereo partly drawn) [BJG-05-039, (3S)-3-((2-Chloro-5-(2,2-difluoroethyl)-8-fluoro-5H-dibenzo[b,e][1,4]diazepin-11-yl)amino)-N-(8-((2-(2,6-dioxopiperidin-3-yl)-1,3-dioxoisoindolin-4-yl)amino)octyl)pyrrolidine-1-carboxamide], the remaining binding at 10 µM was 52% in assay [1]; 81% in [2]; 96% in assay [3]; 83% in [4]; 74% in assay [5]; 98% in assay [6]. For the same molecule, the remaining binding at 10 µM in assay [7] was found to be 100%; in assay [8], 96%; in assay [9], 78%; in assay [10], 87%; in [11] it was 98%; in assay [12], 46%. For the same molecule, the remaining binding at 10 µM turned out to be 20% in assay [14], 100% in assay [15], 100% in [16] and 100% in assay [17]. The “Change in protein abundance” value in assay [13] is “significant downregulation of this kinase was not apparent”.
